Patent US6342516B1, “Phenylazole compounds, process for producing the same and drugs for hyperlipemia” (Nippon Soda Co., Ltd., priority 1998, dated 2002)

Legend:
rats (male SD-strain) = conditions: rat, in vivo, 100 mg/kg/day
Protocol: Pharmacological Test Example 4: Repeated Oral Administration Toxicity
The Compound with No. 3-1 was suspended in 1% polyethylene-hardened castor oil (NIKKOL HCO-60) solution, and the suspension was orally administered to rats (male SD-strain), 6 rats per group, at a rate of 100 mg/kg/day for 7 days.

[1] = tested on: Lipid peroxidation activity in rat liver microsome; test: Effect on lipid peroxidation in vitro (rat liver microsome, thiobarbituric acid method); assay type: biochemical; conditions: rat liver microsomes, 500 μM cystein and 5 μM ferrous(II) sulfate, malonaldehyde by thiobarbituric acid method; read-out: Lipid Antiperoxidation Activity 50% Inhibition Concentration (IC50)
Protocol: Pharmacological Test Example 2: Effect on lipid peroxidation in vitro
Lipid peroxidation activity in rat liver microsome was determined according to the method of Malvy et al. (Malvy et al., Biochemical and Biophysical Research Communications, 95, 734-737 (1980)). More particularly, 500 μM cystein and 5 μM ferrous(II) sulfate were incubated with rat liver microsomes, and the amount of malonaldehyde produced due to the decomposition of lipid peroxide was determined according to thiobarbituric acid method. The concentration of the compounds required to inhibit the formation of lipid peroxide by 50% (IC50) was calculated.

cholesterol-fed hamsters = test: Effect on serum lipids of cholesterol-fed hamsters (serum total cholesterol and triglyceride reduction rate); assay type: in vivo; conditions: cholesterol-fed Syrian hamsters, oral once a day for 5 days, dose 25 mg/kg
Protocol: Pharmacological Test Example 1: Effect on serum lipids of cholesterol-fed hamsters
Syrian hamsters (Std:Syrian, Male, 4 weeks old) were freely fed with chow containing 1% cholesterol and 10% coconut oil for 3 weeks ad libitum.
At the last week of feeding, each of the test compounds was dissolved or suspended in either 0.1% hydrochloric acid solution or 1% polyethylene-hydrogenated castor oil (NIKKOL HCO-60) solution and was orally administrated to hamsters once a day for 5 days. For the hamsters of the control group, only the solvent was orally administered. Then, blood was collected from the abdominal vein under the condition of anesthesia with pentobarbital at 2-4 hours after the last administration, and the serum in the blood was separated. The serum total cholesterol value and the serum triglyceride value were determined by using autobiochemical analyzer with analizing kits, and reduction rate of the serum lipids was determined according to the equation indicated below based on the analyzed values for respective hamster groups.
Serum lipids reduction rate (%)=(Amount of serum lipids of the control group−Amount of serum lipids of the group administrated with the test compound)/Amount of serum lipids of the control group×100

[2] = tested on: carbon tetrachloride induced liver damage model in rats; test: Carbon tetrachloride induced liver damage model in rats (lipid peroxide in liver; serum GOT, GPT); assay type: in vivo, rats (SD-strain, male); conditions: CCl4: 0.5 ml/kg, dose 100 mg/kg oral 3 times
Protocol: Pharmacological Test Example 3: Effect on lipid peroxidation […] Effect of the compounds of the present invention on the produced lipid peroxide in liver was examined on carbon tetrachloride induced liver damage model in rats. Briefly, providing 5 SD-strain male rats (6 weeks old) for each group, carbon tetrachloride at the rate of 1 ml/kg or 2 ml/kg (0.5 ml/kg or 1 ml/kg based on carbon tetrachloride) was orally administered to the rats together with the equivalent dose of olive oil. At 24 hours after the administration of carbon tetrachloride, their livers were excised, and the produced amount of lipid peroxide in liver was determined by thiobarbituric acid method according to Uchiyama's method (Uchiyama, M., et al., Analytical biochemistry, 86, 271-278 (1978)). In parallel, as the indicator for liver disorder due to carbon tetrachloride, serum enzyme activity (GOT, GPT) was measured. Then each of the test compounds, which was either dissolved or suspended in either 0.1% hydrochloric acid solution or olive oil, was orally administered to the rats 3 times at 1 before and, 3 and 6 hours after the administration of carbon tetrachloride. For the rats of normal group and control groups, the solvent was orally administered. Based on the measured values for each groups, the inhibitory rate of producing peroxidized lipids and the inhibitory rate of causing liver disorder were calculated according to the following equation. Inhibitory rate of producing lipid peroxide (%)=[1−(Produced amount of lipid peroxide in the test compound group−Produced amount of lipid peroxide in the normal rat group)/(Produced amount of lipid peroxide in the control group−Produced amount of lipid peroxide in the normal rat group)]×100 Liver disorder preventing rate (%)=[1−(GOT amount of GPT amount in the test compound group−GOT amount or GPT amount in the normal rat group)/(GOT amount or GPT amount in the control group−GOT amount or GPT amount in the normal rat group)]×100 The results are presented in Table 8.

`Cc1c(C)c2c(c(C)c1O)CCC(C)(C(=O)Nc1ccc(-n3ccnc3)cc1)O2` (racemic) [Compound No. 3-1, (±)-(6-Hydroxy-2,5,7,8-tetramethylchroman-2-yl)-N-[4-(imidazol-1-yl)phenyl]carboxamide] was tested, and the “Repeated oral administration toxicity (death, toxicological symptoms)” value (rats (male SD-strain)) was “neither death nor any toxicological symptoms were observed”, the IC50 [1] was 2700 nM and the “Serum lipids reduction rate comparing to Control group (%), Means of 3 animals: Total cholesterol” value (cholesterol-fed hamsters) was 40%. For the same compound, the “Serum lipids reduction rate comparing to Control group (%), Means of 3 animals: Triglyceride” value (cholesterol-fed hamsters) was 62%, the “Antioxidation Activity of Lipid: Mass of lipid peroxide” value ([2]; liver at 24 hours) was 2.361 A535nm/g lever and the “Antioxidation Activity of Lipid: Prevention Rate” value ([2]; liver at 24 hours) was 96%. For the same compound, the “Preventive Activity on Liver Disorder: GOT” value ([2]; serum) was 137 IU/L, the “Preventive Activity on Liver Disorder: GOT Prevention Rate” value ([2]; serum) was 100% and the “Preventive Activity on Liver Disorder: GPT” value ([2]; serum) was 61 IU/L. For the same compound, the “Preventive Activity on Liver Disorder: GPT Prevention Rate” value ([2]; serum) was 86%.
